Data from ChEMBL document CHEMBL4359906, “Design and synthesis of new N-terminal fatty acid modified-antimicrobial peptide analogues with potent in vitro biological activity” (Eur J Med Chem, 2019).
Values after ≈ are worked out from the molar mass of the structure shown. Active and inactive are the calls of the source. The rule behind the calls is not given here.

Key:
Staphylococcus aureus [1] = test: Antibacterial activity against methicillin-resistant Staphylococcus aureus 936 after 18 hrs by CLSI based broth microdilution method; assay type: functional; details: Staphylococcus aureus, 936, 18 h
Escherichia coli [2] = test: Induction of outer membrane permeabilization in Escherichia coli ATCC 25922 measured up to 12 mins by NPN-dye based assay; assay type: organism-based
Klebsiella pneumoniae [3] = test: Potentiation of polymyxin B-induced antibacterial activity against Klebsiella pneumoniae ATCC 700603 assessed as FICI after 18 hrs by checker board assay; assay type: functional
Klebsiella pneumoniae [4] = test: Potentiation of rifampicin-induced antibacterial activity against Klebsiella pneumoniae ATCC 700603 assessed as FICI after 18 hrs by checker board assay; assay type: functional
Escherichia coli [5] = test: Induction of membrane disruption in Escherichia coli ATCC 25922 assessed as rough membrane surface at 4 times of MIC after 2 hrs by SEM analysis; assay type: functional, organism-based
Escherichia coli [6] = test: Antibiofilm activity against Escherichia coli ATCC 25922 after 24 hrs by crystal violet staining based assay; assay type: functional, organism-based
Bacillus subtilis = test: Antibacterial activity against Bacillus subtilis ATCC 23857 after 18 hrs by CLSI based broth microdilution method; assay type: functional; details: ATCC 23857, 18 h
Staphylococcus aureus [7] = test: Ratio of antibacterial activity against Staphylococcus aureus ATCC 25923 in presence of NaCl to antibacterial activity against Staphylococcus aureus ATCC 25923; assay type: functional
Escherichia coli [8] = test: Ratio of antibacterial activity against Escherichia coli ATCC 25922 in presence of MgCl2 to antibacterial activity against Escherichia coli ATCC 25922; assay type: functional
Escherichia coli [9] = test: Induction of membrane disruption in Escherichia coli ATCC 25922 assessed as corrugated membrane surface at 4 times of MIC after 2 hrs by SEM analysis; assay type: functional, organism-based
Escherichia coli [10] = test: Ratio of MIC for Escherichia coli ATCC 25922 preincubated for 6 hrs in presence of 10% mouse serum and measured after 18 hrs to MIC for antibacterial activity against Escherichia coli ATCC 25922 after 18 hrs; assay type: functional
Escherichia coli [11] = test: Disruption of membrane integrity in Escherichia coli ATCC 25922 assessed as membrane damage by measuring PI fluorescence at 4 times of MIC incubated for 1 hr by PI dye based flow cytometric analysis (reference value: 1.35%); assay type: functional
Escherichia coli [12] = test: Induction of ROS generation in Escherichia coli ATCC 25922; assay type: functional, organism-based
Escherichia coli [13] = test: Antimicrobial activity against Escherichia coli ATCC 25922 at 1 mM preincubated for 6 hrs in presence of 2000 ug/ml trypsin and measured after 18 hrs by microplate reader analysis; assay type: functional, organism-based
Escherichia coli [14] = test: Potentiation of polymyxin B-induced antibacterial activity against Escherichia coli ATCC 25922 assessed as FICI after 18 hrs by checker board assay; assay type: functional
Escherichia coli [15] = test: Ratio of antibacterial activity against Escherichia coli ATCC 25922 in presence of FeCl3 to antibacterial activity against Escherichia coli ATCC 25922; assay type: functional
Escherichia coli [16] = test: Induction of membrane disruption in Escherichia coli ATCC 25922 assessed as degeneration in membrane at 4 times of MIC after 2 hrs by SEM analysis; assay type: functional, organism-based
Escherichia coli [17] = test: Antibacterial activity against Escherichia coli ATCC 43837 after 18 hrs by CLSI based broth microdilution method; assay type: functional; details: ATCC 43837, 18 h
DNA = test: Binding affinity to Escherichia coli ATCC 25922 genomic DNA after 30 mins by agarose gel electrophoresis; assay type: nucleic-acid assay
Staphylococcus aureus [18] = test: Antibiofilm activity against Staphylococcus aureus ATCC 25923 after 24 hrs by crystal violet staining based assay; assay type: functional, organism-based
Pseudomonas aeruginosa [19] = test: Potentiation of polymyxin B-induced antibacterial activity against Pseudomonas aeruginosa ATCC 27853 assessed as FICI after 18 hrs by checker board assay; assay type: functional
[20] = Selectivity index, ratio of MHC10 for human RBC to geometric mean of peptide MIC for gram positive bacteria; assay type: toxicity; details: human red blood cells, read-out: Selectivity Index
Staphylococcus aureus [21] = test: Antibacterial activity against Staphylococcus aureus ATCC 25923 after 18 hrs by CLSI based broth microdilution method; assay type: functional; details: ATCC 25923, 18 h
Escherichia coli [22] = test: Antibiofilm activity against Escherichia coli ATCC 25922 at 2 times MIC after 24 hrs by crystal violet staining based assay; assay type: functional, organism-based
Staphylococcus aureus [23] = test: Ratio of antibacterial activity against Staphylococcus aureus ATCC 25923 in presence of MgCl2 to antibacterial activity against Staphylococcus aureus ATCC 25923; assay type: functional
Pseudomonas aeruginosa [24] = test: Antibiofilm activity against Pseudomonas aeruginosa ATCC 27853 after 24 hrs by crystal violet staining based assay; assay type: functional, organism-based
Pseudomonas aeruginosa [25] = test: Antibacterial activity against Pseudomonas aeruginosa ATCC 27853 after 18 hrs by CLSI based broth microdilution method; assay type: functional; details: ATCC 27853, 18 h
Staphylococcus aureus [26] = test: Ratio of antibacterial activity against Staphylococcus aureus ATCC 25923 in presence of FeCl3 to antibacterial activity against Staphylococcus aureus ATCC 25923; assay type: functional
Escherichia coli [27] = test: Ratio of antibacterial activity against Escherichia coli ATCC 25922 in presence of KCl to antibacterial activity against Escherichia coli ATCC 25922; assay type: functional
Erythrocyte = test: Hemolytic activity in human RBC measured after 1 hr by microplate reader analysis; assay type: ADME, cell-based
Escherichia coli [28] = test: Induction of inner membrane permeabilization in Escherichia coli ATCC 43837 assessed as increase in ONPG release at 4 times of MIC by ONPG dye based assay; assay type: organism-based
Staphylococcus aureus [29] = test: Ratio of antibacterial activity against Staphylococcus aureus ATCC 25923 in presence of KCl to antibacterial activity against Staphylococcus aureus ATCC 25923; assay type: functional
Klebsiella pneumoniae [30] = test: Antibacterial activity against Klebsiella pneumoniae ATCC 700603 after 18 hrs by CLSI based broth microdilution method; assay type: functional; details: Klebsiella pneumoniae, 700603, 18 h
Escherichia coli [31] = test: Antibacterial activity against Escherichia coli ATCC 25922 after 18 hrs by CLSI based broth microdilution method; assay type: functional; details: ATCC 25922, 18 h
Escherichia coli [32] = test: Ratio of antibacterial activity against Escherichia coli ATCC 25922 in presence of NaCl to antibacterial activity against Escherichia coli ATCC 25922; assay type: functional
Escherichia coli [33] = test: Induction of membrane disruption in Escherichia coli ATCC 25922 assessed as fracture in membrane at 4 times of MIC after 2 hrs by SEM analysis; assay type: functional, organism-based
Pseudomonas aeruginosa [34] = test: Potentiation of rifampicin-induced antibacterial activity against Pseudomonas aeruginosa ATCC 27853 assessed as FICI after 18 hrs by checker board assay; assay type: functional
Escherichia coli [35] = test: Potentiation of rifampicin-induced antibacterial activity against Escherichia coli ATCC 25922 assessed as FICI after 18 hrs by checker board assay; assay type: functional
[36] = Selectivity index, ratio of MHC10 for human RBC to geometric mean of peptide MIC for gram negative bacteria; assay type: toxicity; details: human red blood cells, read-out: Selectivity Index
Escherichia coli [37] = test: Ratio of MIC for Escherichia coli ATCC 25922 preincubated for 1 hr in presence of 10% mouse serum and measured after 18 hrs to MIC for antibacterial activity against Escherichia coli ATCC 25922 after 18 hrs; assay type: functional

In the case of `CCCCCCCC(=O)NCC(=O)N[C@@H](CC(C)C)C(=O)N[C@@H](CC(C)C)C(=O)N[C@H](CCCCN)C(=O)N[C@@H](CCCNC(=N)N)C(=O)N[C@H](C(=O)N[C@H](CCCCN)C(=O)N[C@H](C(=O)N[C@@H](CC(C)C)C(=O)N[C@@H](CC(C)C)C(N)=O)[C@@H](C)O)[C@@H](C)CC`, the MIC (Staphylococcus aureus [1]) is reported as 64 µM (≈ 81.9 µg/mL), the Activity (Escherichia coli [2]) is reported as “Dose-dependent effect” and the “fractional inhibitory concentration index (FICI)” value (Klebsiella pneumoniae [3]) is reported as 0.0625. For the same compound, the “fractional inhibitory concentration index (FICI)” value (Klebsiella pneumoniae [4]) was 0.0625, the Activity (Escherichia coli [5]) was “Active” and the inhibition (Escherichia coli [6]) was “Dose-dependent effect”. For the same compound, the MIC (Bacillus subtilis) was 4 µM (≈ 5.12 µg/mL), the Ratio (Staphylococcus aureus [7]) was 2 - 4 and the Ratio (Escherichia coli [8]) was 2 - 4. The Activity (Escherichia coli [9]) was “Active”, the Ratio (Escherichia coli [10]) was 1 and the Activity (Escherichia coli [11]) was 70.8%. The Activity (Escherichia coli [12]) was “inactive”, the Activity (Escherichia coli [13]) was “Active” and the “fractional inhibitory concentration index (FICI)” value (Escherichia coli [14]) was 0.1875. The Ratio (Escherichia coli [15]) was 2 - 4, the Activity (Escherichia coli [16]) was “Active” and the MIC (Escherichia coli [17]) was 32 µM (≈ 41 µg/mL). For the same compound, the Activity (DNA) was “Dose-dependent effect”, the inhibition (Staphylococcus aureus [18]) was “Dose-dependent effect” and the “fractional inhibitory concentration index (FICI)” value (Pseudomonas aeruginosa [19]) was 0.1875. The selectivity ratio [20] was 15.4, the MIC (Staphylococcus aureus [21]) was 32 µM (≈ 41 µg/mL) and the inhibition (Escherichia coli [22]) was “Active”. The Ratio (Staphylococcus aureus [23]) was 2 - 4, the inhibition (Pseudomonas aeruginosa [24]) was “Dose-dependent effect” and the MIC (Pseudomonas aeruginosa [25]) was 8 µM (≈ 10.2 µg/mL). For the same compound, the Ratio (Staphylococcus aureus [26]) was 2 - 4, the Ratio (Escherichia coli [27]) was 2 - 4 and the MHC10 (Erythrocyte) was > 256 µM. For the same compound, the Activity (Escherichia coli [28]) was “Active”, the Ratio (Staphylococcus aureus [29]) was 2 - 4 and the MIC (Klebsiella pneumoniae [30]) was 64 µM (≈ 81.9 µg/mL). The MIC (Escherichia coli [31]) was 64 µM (≈ 81.9 µg/mL), the Ratio (Escherichia coli [32]) was 2 - 4 and the Activity (Escherichia coli [33]) was “Active”. For the same compound, the “fractional inhibitory concentration index (FICI)” value (Pseudomonas aeruginosa [34]) was 0.75, the “fractional inhibitory concentration index (FICI)” value (Escherichia coli [35]) was 0.0625 and the selectivity ratio [36] was 12.2. For the same compound, the Ratio (Escherichia coli [37]) was 1.

With `CCCCCCCCCC(=O)NCC(=O)N[C@@H](CC(C)C)C(=O)N[C@@H](CC(C)C)C(=O)N[C@H](CCCCN)C(=O)N[C@@H](CCCNC(=N)N)C(=O)N[C@H](C(=O)N[C@H](CCCCN)C(=O)N[C@H](C(=O)N[C@@H](CC(C)C)C(=O)N[C@@H](CC(C)C)C(N)=O)[C@@H](C)O)[C@@H](C)CC` the MIC (Staphylococcus aureus [1]) was 8 µM (≈ 10.5 µg/mL), the Activity (Escherichia coli [2]) was “Dose-dependent effect” and the “fractional inhibitory concentration index (FICI)” value (Klebsiella pneumoniae [3]) was 0.3125. The “fractional inhibitory concentration index (FICI)” value (Klebsiella pneumoniae [4]) was 0.3125, the Activity (Escherichia coli [5]) was “Active” and the inhibition (Escherichia coli [6]) was “Dose-dependent effect”. For the same compound, the MIC (Bacillus subtilis) was 8 µM (≈ 10.5 µg/mL), the Ratio (Staphylococcus aureus [7]) was 2 - 4 and the Ratio (Escherichia coli [8]) was 2 - 4. The Activity (Escherichia coli [9]) was “Active”, the Ratio (Escherichia coli [10]) was 1 and the Activity (Escherichia coli [11]) was 75.9%. For the same compound, the Activity (Escherichia coli [12]) was “inactive”, the Activity (Escherichia coli [13]) was “Active” and the “fractional inhibitory concentration index (FICI)” value (Escherichia coli [14]) was 0.3125. For the same compound, the Ratio (Escherichia coli [15]) was 2 - 4, the Activity (Escherichia coli [16]) was “Active” and the MIC (Escherichia coli [17]) was 8 µM (≈ 10.5 µg/mL). The Activity (DNA) was “Dose-dependent effect”, the inhibition (Staphylococcus aureus [18]) was “Dose-dependent effect” and the “fractional inhibitory concentration index (FICI)” value (Pseudomonas aeruginosa [19]) was 0.125. For the same compound, the selectivity ratio [20] was 8, the MIC (Staphylococcus aureus [21]) was 8 µM (≈ 10.5 µg/mL) and the inhibition (Escherichia coli [22]) was “inactive”. For the same compound, the Ratio (Staphylococcus aureus [23]) was 2 - 4, the inhibition (Pseudomonas aeruginosa [24]) was “Dose-dependent effect” and the MIC (Pseudomonas aeruginosa [25]) was 8 µM (≈ 10.5 µg/mL). The Ratio (Staphylococcus aureus [26]) was 2 - 4, the Ratio (Escherichia coli [27]) was 2 - 4 and the MHC10 (Erythrocyte) was 64 µM. The Activity (Escherichia coli [28]) was “Active”, the Ratio (Staphylococcus aureus [29]) was 2 - 4 and the MIC (Klebsiella pneumoniae [30]) was 16 µM (≈ 20.9 µg/mL). The MIC (Escherichia coli [31]) was 16 µM (≈ 20.9 µg/mL), the Ratio (Escherichia coli [32]) was 2 - 4 and the Activity (Escherichia coli [33]) was “Active”. The “fractional inhibitory concentration index (FICI)” value (Pseudomonas aeruginosa [34]) was 0.3125, the “fractional inhibitory concentration index (FICI)” value (Escherichia coli [35]) was 0.1875 and the selectivity ratio [36] was 5.33. The Ratio (Escherichia coli [37]) was 1.
